The target in this experiment is T1, full-length MALT1 protein His-MALT1(1-824) (Homo sapiens, UniProt Q9UDY8).
T1 construct: full-length MALT1 protein His-MALT1(1-824); His (N); made in house; host or cells: baculovirus-infected insect cells
T1 sequence (Q9UDY8 1-824): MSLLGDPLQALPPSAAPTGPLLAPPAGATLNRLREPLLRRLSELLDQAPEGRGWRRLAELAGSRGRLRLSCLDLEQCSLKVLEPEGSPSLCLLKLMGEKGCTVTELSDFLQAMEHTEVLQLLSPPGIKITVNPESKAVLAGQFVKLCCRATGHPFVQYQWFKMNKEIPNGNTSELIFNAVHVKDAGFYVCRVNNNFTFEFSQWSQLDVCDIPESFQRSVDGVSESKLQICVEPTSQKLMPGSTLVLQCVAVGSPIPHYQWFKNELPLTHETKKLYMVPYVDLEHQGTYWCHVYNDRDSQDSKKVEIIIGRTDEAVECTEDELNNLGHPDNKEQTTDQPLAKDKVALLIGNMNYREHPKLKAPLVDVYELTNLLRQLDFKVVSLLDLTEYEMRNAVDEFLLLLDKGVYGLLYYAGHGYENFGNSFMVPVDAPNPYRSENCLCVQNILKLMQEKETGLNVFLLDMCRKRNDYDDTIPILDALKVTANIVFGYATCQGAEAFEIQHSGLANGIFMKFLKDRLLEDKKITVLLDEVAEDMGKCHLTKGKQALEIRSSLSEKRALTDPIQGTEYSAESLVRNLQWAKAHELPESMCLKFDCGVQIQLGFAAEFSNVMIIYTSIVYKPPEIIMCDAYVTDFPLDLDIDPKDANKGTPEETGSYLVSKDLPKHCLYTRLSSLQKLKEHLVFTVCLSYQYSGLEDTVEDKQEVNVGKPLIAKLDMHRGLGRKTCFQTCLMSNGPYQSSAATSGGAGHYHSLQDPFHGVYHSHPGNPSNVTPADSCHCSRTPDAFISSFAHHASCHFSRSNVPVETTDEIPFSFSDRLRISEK
The experiment can be described thus: MALT1 protease assay, Assay 2 (1 nM MALT1, Ac-LRSR-AMC substrate). As to conditions: 1 nM MALT1, 50 μM Ac-LRSR-AMC, 2 h pre-incubation, 8 hr incubation at RT. In kind it is biochemical. On the procedure: MALT1 protease activity was assessed in an in vitro assay using a tetrapeptide as substrate and full-length MALT1 protein His-MALT1(1-824) purified from baculovirus-infected insect cells. The tetrapeptide substrate is Ac-LRSR-AMC (SM Biochemicals) with Km measured at around 100 μM.
The final assay buffer includes 1 nM (Assay 2) or 2 nM (Assay 1) of MALT1 full-length protein, 50 μM Ac-LRSR-AMC substrate, 50 mM Tris pH 7.5, 600 mM Sodium Citrate, 1 mM DTT, 1 mM EDTA, and 0.05% BSA in 384-well plate format using black microtiter square well plates (Optiplate 384-F, Perkin Elmer).
Test compounds were dissolved in 100% DMSO at stock of 10 mM, with final DMSO concentration 0.1%. Test compounds were pre-incubated with MALT1 protein for 2 h at room temperature. Substrate was added after the pre-incubation and fluorescence signal was measured using Envision at excitation 355 nm and emission 460 nm after 8 hr incubation at RT. Increase in the assay signal was linear over this period and proportional with increase in the enzyme content.
The fluorescence units were transformed to percentage of remaining activity by using the high control (HC, median of fluorescence signal from wells containing MALT1 protein, substrate, and DMSO) and low control (LC, median of fluorescence signal from wells with substrate only) with the formula below: […]
IC50 and Hill coefficients were obtained using Graph Pad Prism (Graph Pad software, Inc, USA) with non-linear regression analysis.

In general, IC50 refers to the concentration at which inhibition is half-maximal.

As to `Cc1c(F)nn2c3c(cnc12)C(C(=O)Nc1cnc(-n2nccn2)c(Cl)c1)CC3(C)C` (single isomer, unassigned) [Example 113, N-(5-chloro-6-(2H-1,2,3-triazol-2-yl)pyridin-3-yl)-2-fluoro-3,8,8-trimethyl-7,8-dihydro-6H-cyclopenta[e]pyrazolo[1,5-a]pyrimidine-6-carboxamide], the IC50 is no less than 1000 nM.
`Cc1c(F)nn2c3c(cnc12)C(C(=O)Nc1cnc(-n2nccn2)c(Cl)c1)CC3(C)C` (single isomer, unassigned) [Example 114, N-(5-chloro-6-(2H-1,2,3-triazol-2-yl)pyridin-3-yl)-2-fluoro-3,8,8-trimethyl-7,8-dihydro-6H-cyclopenta[e]pyrazolo[1,5-a]pyrimidine-6-carboxamide] gave an IC50 of 100 to 1000 nM.
As to `CC1(C)C[C@@H](C(=O)Nc2cnc(-n3nccn3)c(Cl)c2)c2cnc3c(F)c(F)nn3c21` (single isomer, unassigned) [Example 121, N-(5-chloro-6-(2H-1,2,3-triazol-2-yl)pyridin-3-yl)-2,3-difluoro-8,8-dimethyl-7,8-dihydro-6H-cyclopenta[e]pyrazolo[1,5-a]pyrimidine-6-carboxamide], the 50% inhibitory concentration (IC50) lay in the range of 100 to 1000 nM.
Under `CC1(C)C[C@@H](C(=O)Nc2cnc(OC(F)F)c(C#N)c2)c2cnc3cc(C(F)F)nn3c21` (single isomer, unassigned) [Example 125, N-(5-cyano-6-(difluoromethoxy)pyridin-3-yl)-2-(difluoromethyl)-8,8-dimethyl-7,8-dihydro-6H-cyclopenta[e]pyrazolo[1,5-a]pyrimidine-6-carboxamide] stands no less than 1000 nM.
Under `CC1(C)CC(C(=O)Nc2cnc(OC(F)F)c(C#N)c2)c2cnc3cc(C(F)F)nn3c21` (single isomer, unassigned) [Example 126, N-(5-cyano-6-(difluoromethoxy)pyridin-3-yl)-2-(difluoromethyl)-8,8-dimethyl-7,8-dihydro-6H-cyclopenta[e]pyrazolo[1,5-a]pyrimidine-6-carboxamide] stands 10 to 100 nM; under `CC1(C)C[C@@H](C(=O)Nc2cc(N=S(C)(C)=O)nc(C(F)(F)F)c2)c2cnc3cc(F)nn3c21` (single isomer, unassigned) [Example 127, N-(2-((dimethyl(oxo)-λ^6-sulfaneylidene)amino)-6-(trifluoromethyl)pyridin-4-yl)-2-fluoro-8,8-dimethyl-7,8-dihydro-6H-cyclopenta[e]pyrazolo[1,5-a]pyrimidine-6-carboxamide], no less than 1000 nM; under `CC1(C)C[C@@H](C(=O)Nc2cnc(-n3nccn3)c(C#N)c2)c2cnc3cc(C(F)F)nn3c21` (single isomer, unassigned) [Example 129, N-(5-cyano-6-(2H-1,2,3-triazol-2-yl)pyridin-3-yl)-2-(difluoromethyl)-8,8-dimethyl-7,8-dihydro-6H-cyclopenta[e]pyrazolo[1,5-a]pyrimidine-6-carboxamide], 100 to 1000 nM.
Next, `CC1(C)CC(C(=O)Nc2cnc(-n3nccn3)c(C#N)c2)c2cnc3cc(C(F)F)nn3c21` (single isomer, unassigned) [Example 130, N-(5-cyano-6-(2H-1,2,3-triazol-2-yl)pyridin-3-yl)-2-(difluoromethyl)-8,8-dimethyl-7,8-dihydro-6H-cyclopenta[e]pyrazolo[1,5-a]pyrimidine-6-carboxamide]: 10 to 100 nM.
For `CC1(C)CC(C(=O)Nc2cnc(N=S(C)(C)=O)c(Cl)c2)c2cnc3cc(F)nn3c21` (single isomer, unassigned) [Example 131, N-(5-chloro-6-((dimethyl(oxo)-λ^6-sulfaneylidene)amino)pyridin-3-yl)-2-fluoro-8,8-dimethyl-7,8-dihydro-6H-cyclopenta[e]pyrazolo[1,5-a]pyrimidine-6-carboxamide], the IC50 is no less than 1000 nM.

The record behind these values is patent US12667572B2, “Tricyclic compounds useful in the treatment of cancer, autoimmune and inflammatory disorders” (SCHRÖDINGER, INC., priority 2021, dated 2026).
